Measurements: US20260174739A1 (priority 2022, published 2026)

Columns and labels:
[1] = In vivo metabolism (pharmacokinetic) experiment in mice; set-up: species or system male ICR mice; conditions: male, ICR, mouse, po, 10 mg/kg, male ICR mice
In short: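 Fasted (12 h) male ICR mice received compound in 5% DMSO/5% Solutol HS15/90% saline at 2.5 mg/kg iv or 10 mg/kg po. Plasma and brain sampled 0.083–8 h (n=3 per time point) and analysed by LC-MS/MS. Parameters derived by non-compartmental analysis.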

human DAT = human DAT (Homo sapiens, UniProt Q01959); experiment: DAT transporter inhibitory activity test (neurotransmitter transporter uptake assay kit); format: cell-based
Sequence of human DAT (Q01959 whole entry): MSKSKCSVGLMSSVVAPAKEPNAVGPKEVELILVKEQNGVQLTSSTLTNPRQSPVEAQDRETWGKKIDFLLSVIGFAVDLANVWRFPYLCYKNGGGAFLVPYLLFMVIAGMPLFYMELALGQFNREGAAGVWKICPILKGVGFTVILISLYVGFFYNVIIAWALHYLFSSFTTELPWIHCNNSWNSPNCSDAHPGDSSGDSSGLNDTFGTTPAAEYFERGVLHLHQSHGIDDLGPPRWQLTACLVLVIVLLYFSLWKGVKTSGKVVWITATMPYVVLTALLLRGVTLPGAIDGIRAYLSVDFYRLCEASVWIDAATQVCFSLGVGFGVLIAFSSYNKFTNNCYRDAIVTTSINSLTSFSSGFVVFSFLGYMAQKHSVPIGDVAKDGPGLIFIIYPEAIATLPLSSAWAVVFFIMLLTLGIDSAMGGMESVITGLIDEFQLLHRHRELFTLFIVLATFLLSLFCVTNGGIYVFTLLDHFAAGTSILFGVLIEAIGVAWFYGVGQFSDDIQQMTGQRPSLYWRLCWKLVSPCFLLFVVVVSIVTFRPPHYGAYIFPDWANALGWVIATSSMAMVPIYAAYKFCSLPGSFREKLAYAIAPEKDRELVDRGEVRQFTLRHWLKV

[2] = Human liver microsome assay (metabolic stability); format: in vitro ADME; conditions: pH 7.4; human liver microsomes 0.2 mg/mL, 1 μM test drug, NADPH, 37° C.; read-out: Half-life (t1/2, min)
In short: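 Human liver microsomes 0.2 mg/mL with 1 μM compound, 3.0 mM MgCl2 and 2.0 mM NADPH in 0.1 M phosphate pH 7.4, 37 °C; sampled at 0–60 min. LC-MS/MS peak-area ratio to internal standard; T1/2 and CLint from slope of ln residual versus time.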

What does the source list for `CCNC1(c2ccccc2)CCc2nc(N)sc2C1` (racemic) [rac-A5, N^6-ethyl-6-phenyl-4,5,6,7-tetrahydrobenzothiazole-2,6-diamine]?
bioavailability ([1]; oral 10 mg/kg vs iv 2.5 mg/kg, read-out: F (%)): 63%; AUC(0-inf) ([1]; oral 10 mg/kg, plasma, read-out: AUC0-inf(po)): 1010 ng·h/mL; Cmax ([1]; oral 10 mg/kg, plasma, read-out: Cmax (po)): 250 ng/mL; half-life ([1]; oral 10 mg/kg, plasma, read-out: T1/2 (po) (converted)): 2.43 h; IC50 (human DAT): 2000 nM; half-life at 1 μM [2]: > 120 min
